Measured values from patent publication US20260234125A1, “CYCLIC AMINE DERIVATIVE, AND COMPOSITION AND USE THEREOF” (SHANGHAI JINGXIN BIOMEDICAL CO., LTD., priority 2023, published 2026).
pKd: −log10 of the molar value.

Columns and labels:
[1] = Exposure determination in beagle dogs; assay type: in vivo; details: dog, single oral gavage 4.5 mg/kg, plasma
Procedure: • 1. Experimental purpose: The purpose of this test is to test the exposure of the compound in beagle dogs • 2. Experimental methods: Beagle dogs were housed with a standard light cycle (12 hours light/12 hours dark), at a room temperature of 18-26° C. and a relative humidity of 40-70%, with free access to water and normal diet. Five days prior to the study, the beagle dogs were randomly assigned to groups based on their body weight for the study, including an oral administration group (n=3/group). The administration volume was calculated according to the weight of the animals on the day of administration, and the administration volume was 5 mL/kg, the single oral gavage administration was performed at a dose of 4.5 mg/kg, and the solvent was 1% HEC and 0.25% Tween 80 in Water. Blood was collected from the forelimb vein or other suitable veins at 0.5 h, 1 h, 2 h, 4 h, 6 h, 8 h, 12 h, 24 h, 48 h, 72 h and 96 h after administration. About 1 mL of each sample was collected, K2-EDTA anticoagulated, placed on ice after collection, and within 1 hour, centrifuged to separate plasma (centrifugation conditions: 2200 g, 10 minutes, 2-8° C.) for blood drug concentration detection.

human Apo(a) protein = target: T1, human Apo(a) protein (Homo sapiens, UniProt P08519); assay: BLI affinity of compounds to Apo(a); assay type: binding; details: biotinylated apolipoprotein(a) on SA sensor, compound 100 nM
T1 construct: biotin (biotinylated)
Procedure: • 1. Experimental purpose: The purpose of this test is to test the affinity of the compounds of the present disclosure to Apo(a) • 2. Experimental instruments and reagents: • Molecular interaction analyzer (ForteBio Octet red 96e), • SA sensor (ForteBio), • 96-well plates were purchased from Greine, • 3. Experimental methods:
Prepared two 96-well plates, one as a sample plate and another as a pre-wett plate, curing buffer was added to a 200 μL well of the pre-wet plate, and the SA sensor was pre-wetted for at least ten minutes. All reagents and samples were added to another black sample plate, after the sample addition was completed, the sensor plate and the sample plate were placed into the ForteBio Octet red 96e instrument. The program was set up in sequence for detection. The experimental temperature was set to 30° C. and the acquisition frequency was set at 5.0 Hz. The biosensor was run in 1×PBS, pH7.4, 0.02% Tween-20, 0.1% BSA in the first column for 60 seconds, which was the baseline step. Biotinylated apolipoprotein(a) was diluted to 40 μg/ml with 1×PBS, pH7.4, 0.02% Tween-20, 0.1% BSA, and added to the second column, where it was run for a period of time until the amount of curing on the sensor reaches 2.0 nm. The biosensor was run in 1×PBS, pH7.4, 0.02% Tween-20, 0.1% BSA in the third column for 60 seconds, which was the baseline step. The compound was diluted to 100 nM with 1×PBS, pH7.4, 0.02% Tween-20, 0.1% BSA, and added to the fourth column, where the sensor was run for 60 seconds. The sensor was run in 1×PBS, pH7.4, 0.02% Tween-20, 0.1% BSA in the third column for 120 seconds, during this process, the compound dissociated from the sensor. The affinity constant KD reflects the size of the interaction binding ability. When the concentration of the analyte is at KD, the equilibrium signal Req is half of Rmax.

hERG potassium channel = target: T2, hERG potassium channel (Homo sapiens, UniProt Q12809); assay: hERG whole-cell patch clamp experiment; assay type: cell-based; details: HEK-293 cells that express hERG, HEK-293-hERG cell, read-out: inhibition rate
T2 construct: expressed in transfected cells; host or cells: HEK-293-hERG cells
Procedure: • 1. Experimental purpose: The purpose of this test is to test the inhibition rate of the compounds on the hERG potassium channel • 2. Experimental methods: The hERG current was recorded using the whole-cell patch clamp technique. A suspension of HEK-293-hERG cell was added to a small culture dish and placed on an inverted microscope stage. After the cells adhered to the dish, extracellular fluid was perfused at a flow rate of 1-2 mL/minute. The glass microelectrode was pulled in two steps by a microelectrode puller, after the electrode was filled with internal fluid, its water resistance was 2-5 MΩ. After establishing the whole-cell recording mode, the holding potential was maintained at −80 mV. A depolarizing voltage to +60 mV was applied for 850 ms, and then followed by repolarization to −50 mV for 1275 ms to elicit the hERG tail current. This set of pulse programs was repeated every 15 seconds throughout the experiment. After the current stabilized, the test compound was administered via continuous extracellular perfusion from low concentration to high concentration. Starting from a low concentration, perfusion was continued until the drug effect was stable, and then the next concentration was perfused.

T2 sequence (Q12809 whole entry): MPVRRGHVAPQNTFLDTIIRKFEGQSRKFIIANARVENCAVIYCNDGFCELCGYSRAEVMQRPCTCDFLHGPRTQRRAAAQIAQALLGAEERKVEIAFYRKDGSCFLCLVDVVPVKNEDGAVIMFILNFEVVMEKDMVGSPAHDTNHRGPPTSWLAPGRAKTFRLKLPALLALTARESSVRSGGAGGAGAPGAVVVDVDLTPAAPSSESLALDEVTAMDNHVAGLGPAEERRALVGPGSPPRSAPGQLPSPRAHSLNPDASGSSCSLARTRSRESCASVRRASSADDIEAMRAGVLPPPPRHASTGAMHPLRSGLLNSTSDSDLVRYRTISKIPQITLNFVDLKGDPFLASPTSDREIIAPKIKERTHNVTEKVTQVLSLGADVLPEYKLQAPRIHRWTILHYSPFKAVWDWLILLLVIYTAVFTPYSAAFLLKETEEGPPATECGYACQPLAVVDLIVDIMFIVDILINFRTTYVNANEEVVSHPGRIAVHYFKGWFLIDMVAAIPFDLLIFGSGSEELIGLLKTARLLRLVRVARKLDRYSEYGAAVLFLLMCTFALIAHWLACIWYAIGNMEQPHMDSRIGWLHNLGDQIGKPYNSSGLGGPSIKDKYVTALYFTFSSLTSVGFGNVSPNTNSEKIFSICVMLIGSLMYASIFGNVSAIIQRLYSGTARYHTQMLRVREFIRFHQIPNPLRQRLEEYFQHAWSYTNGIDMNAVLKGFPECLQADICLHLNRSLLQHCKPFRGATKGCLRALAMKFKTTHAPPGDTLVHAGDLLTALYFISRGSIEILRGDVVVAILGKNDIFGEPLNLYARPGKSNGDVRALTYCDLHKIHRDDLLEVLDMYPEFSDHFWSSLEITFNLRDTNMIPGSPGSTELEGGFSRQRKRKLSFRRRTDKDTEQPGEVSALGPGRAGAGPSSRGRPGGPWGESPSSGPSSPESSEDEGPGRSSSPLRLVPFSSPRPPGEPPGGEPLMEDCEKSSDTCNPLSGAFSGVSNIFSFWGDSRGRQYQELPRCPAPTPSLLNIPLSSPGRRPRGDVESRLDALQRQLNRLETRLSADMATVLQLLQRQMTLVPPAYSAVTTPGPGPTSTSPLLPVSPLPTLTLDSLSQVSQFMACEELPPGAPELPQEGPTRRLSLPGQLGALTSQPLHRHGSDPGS
T1 sequence (P08519 20-2040): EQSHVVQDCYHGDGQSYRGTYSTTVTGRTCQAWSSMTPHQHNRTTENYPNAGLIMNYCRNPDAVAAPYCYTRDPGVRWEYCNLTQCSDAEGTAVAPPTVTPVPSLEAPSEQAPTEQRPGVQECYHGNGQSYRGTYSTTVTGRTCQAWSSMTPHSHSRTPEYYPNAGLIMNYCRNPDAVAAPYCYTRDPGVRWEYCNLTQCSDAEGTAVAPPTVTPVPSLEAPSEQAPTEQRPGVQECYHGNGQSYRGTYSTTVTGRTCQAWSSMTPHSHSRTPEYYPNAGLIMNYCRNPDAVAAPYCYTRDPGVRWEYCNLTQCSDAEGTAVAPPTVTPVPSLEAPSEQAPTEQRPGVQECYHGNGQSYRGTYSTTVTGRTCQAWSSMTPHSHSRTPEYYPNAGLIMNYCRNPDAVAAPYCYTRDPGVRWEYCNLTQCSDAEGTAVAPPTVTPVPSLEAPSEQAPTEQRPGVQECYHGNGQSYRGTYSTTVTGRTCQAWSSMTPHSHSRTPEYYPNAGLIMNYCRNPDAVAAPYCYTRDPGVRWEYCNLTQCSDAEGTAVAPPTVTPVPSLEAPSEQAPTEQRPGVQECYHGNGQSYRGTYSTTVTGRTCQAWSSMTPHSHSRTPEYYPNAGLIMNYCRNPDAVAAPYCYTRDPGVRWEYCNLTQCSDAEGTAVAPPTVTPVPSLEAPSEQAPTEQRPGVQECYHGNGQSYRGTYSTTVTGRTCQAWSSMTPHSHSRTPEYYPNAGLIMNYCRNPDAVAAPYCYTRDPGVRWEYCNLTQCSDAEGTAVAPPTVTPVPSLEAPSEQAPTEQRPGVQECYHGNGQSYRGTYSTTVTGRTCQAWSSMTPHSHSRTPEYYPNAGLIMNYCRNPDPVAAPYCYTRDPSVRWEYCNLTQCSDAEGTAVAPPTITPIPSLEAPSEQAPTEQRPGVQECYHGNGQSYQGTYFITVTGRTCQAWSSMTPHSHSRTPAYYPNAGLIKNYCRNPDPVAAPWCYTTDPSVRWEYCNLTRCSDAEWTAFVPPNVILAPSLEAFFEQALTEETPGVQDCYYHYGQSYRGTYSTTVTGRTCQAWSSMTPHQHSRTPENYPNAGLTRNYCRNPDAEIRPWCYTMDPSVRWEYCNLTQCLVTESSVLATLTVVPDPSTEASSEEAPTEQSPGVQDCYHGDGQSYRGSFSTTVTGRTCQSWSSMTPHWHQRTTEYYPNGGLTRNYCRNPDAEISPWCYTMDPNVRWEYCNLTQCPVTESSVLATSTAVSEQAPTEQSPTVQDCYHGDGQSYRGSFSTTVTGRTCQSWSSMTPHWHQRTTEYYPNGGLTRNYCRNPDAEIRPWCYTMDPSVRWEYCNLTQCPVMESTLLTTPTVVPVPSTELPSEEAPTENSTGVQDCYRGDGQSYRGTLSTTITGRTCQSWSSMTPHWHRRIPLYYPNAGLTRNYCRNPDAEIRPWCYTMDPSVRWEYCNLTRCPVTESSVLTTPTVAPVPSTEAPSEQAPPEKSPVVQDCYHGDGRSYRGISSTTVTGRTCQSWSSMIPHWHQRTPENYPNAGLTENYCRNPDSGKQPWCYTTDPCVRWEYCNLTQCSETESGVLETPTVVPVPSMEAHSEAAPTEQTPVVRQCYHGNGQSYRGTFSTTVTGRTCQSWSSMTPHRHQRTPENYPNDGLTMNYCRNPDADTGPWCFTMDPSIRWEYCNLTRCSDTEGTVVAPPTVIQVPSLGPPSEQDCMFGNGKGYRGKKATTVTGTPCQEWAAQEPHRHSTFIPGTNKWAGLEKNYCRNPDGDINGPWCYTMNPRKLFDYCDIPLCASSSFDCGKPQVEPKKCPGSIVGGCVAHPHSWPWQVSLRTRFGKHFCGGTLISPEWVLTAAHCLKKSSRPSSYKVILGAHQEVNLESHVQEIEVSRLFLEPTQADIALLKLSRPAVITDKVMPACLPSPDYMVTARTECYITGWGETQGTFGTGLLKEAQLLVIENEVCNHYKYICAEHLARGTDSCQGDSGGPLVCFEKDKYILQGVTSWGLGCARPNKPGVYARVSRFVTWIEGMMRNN

Row | Compound | AUC(0-inf) [1] [µg·h/mL] | pKd (human Apo(a) protein) | inhibition at 0.3 µM (hERG potassium channel) [%] | inhibition at 1 µM (hERG potassium channel) [%] | inhibition at 3 µM (hERG potassium channel) [%]
1 | O=C(O)[C@@H](Cc1cccc(CN(Cc2cccc(C[C@H](C(=O)O)[C@H]3CCNC3)c2)C(=O)c2cccc(C[C@H](C(=O)O)[C@H]3CCNC3)c2)c1)[C@H]1CCNC1 [Example 5] | 119 | 7.96 | -0.06 | 3.47 | 3.67
2 | O=C(O)[C@@H](Cc1cccc(CN(Cc2cccc(C[C@H](C(=O)O)[C@H]3CCNC3)c2)Cc2cccc(C[C@H](C(=O)O)[C@H]3CCNC3)c2)c1)[C@H]1CCNC1 [Comparative Example 1, reference compound] | 37.4 |  | 7.37 | 24.6 | 29.2
